Assays:
[1] = biological target: T1, human D3 receptors (Homo sapiens, UniProt P35462); assay: Inhibition of [^3 H]spiperone binding to human D3 receptors
T1 construct: expressed in transfected cells
Method: (§1) Dopamine D2 antagonists are established as antipsychotic agents. More recently, the dopamine D3 receptor has been identified. On the basis of the localization of the dopamine D3 receptor in the limbic area of the brain, a selective D3 antagonist should show antipsychotic activity but not have the neurological side effects of D2 antagonists. […] Thus, the compounds of Formula I were tested for their ability to bind to dopamine receptors as measured by their inhibition of [^3 H]spiperone binding to the human D2 and D3 receptors in a receptor assay described by MacKenzie R. G., et al., Characterization of the human D3 dopamine receptor expressed in transfected cell lines, Eur. J. Pharmacol., 266:79 (1994); and for their ability to inhibit locomotor activity in mice and rats, a measure of antipsychotic activity, according to the assay described by McLean J. R., et al., Pharmacology, Biochemistry and Behavior, 8:97- 99 (1978). The above test methods are incorporated herein by reference.

[2] = biological target: T2, human D2 receptors (Homo sapiens, UniProt P14416); assay: Inhibition of [^3 H]spiperone binding to human D2 receptors
T2 construct: expressed in transfected cells
T2 sequence (P14416 whole entry): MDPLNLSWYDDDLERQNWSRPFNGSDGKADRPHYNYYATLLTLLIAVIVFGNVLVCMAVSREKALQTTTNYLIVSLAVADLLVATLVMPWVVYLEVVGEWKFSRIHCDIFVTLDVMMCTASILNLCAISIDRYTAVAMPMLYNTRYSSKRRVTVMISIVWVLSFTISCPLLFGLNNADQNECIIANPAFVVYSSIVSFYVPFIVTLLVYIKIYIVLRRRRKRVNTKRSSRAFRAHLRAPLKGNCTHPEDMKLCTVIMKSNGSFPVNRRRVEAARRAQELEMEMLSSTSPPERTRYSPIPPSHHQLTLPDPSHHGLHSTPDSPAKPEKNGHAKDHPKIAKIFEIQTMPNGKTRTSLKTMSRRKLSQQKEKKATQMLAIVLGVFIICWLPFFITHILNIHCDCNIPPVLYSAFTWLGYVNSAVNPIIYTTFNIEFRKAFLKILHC
Method: as §1

[3] = system: rats; assay: Inhibition of locomotor activity in rats; format: in vivo; settings: Rattus norvegicus, IP
From the text: The compounds of Formula I are valuable dopaminergic agents. Dopamine D2 antagonists are established as antipsychotic agents. More recently, the dopamine D3 receptor has been identified. On the basis of the localization of the dopamine D3 receptor in the limbic area of the brain, a selective D3 antagonist should show antipsychotic activity but not have the neurological side effects of D2 antagonists. The tests employed indicate that compounds of Formula I bind selectively to the dopamine D3 receptor. Thus, the compounds of Formula I were tested for their ability to bind to dopamine receptors as measured by their inhibition of [^3 H]spiperone binding to the human D2 and D3 receptors in a receptor assay described by MacKenzie R. G., et al., Characterization of the human D3 dopamine receptor expressed in transfected cell lines, Eur. J. Pharmacol., 266:79 (1994); and for their ability to inhibit locomotor activity in mice and rats, a measure of antipsychotic activity, according to the assay described by McLean J. R., et al., Pharmacology, Biochemistry and Behavior, 8:97- 99 (1978). The above test methods are incorporated herein by reference.

T1 sequence (P35462 whole entry): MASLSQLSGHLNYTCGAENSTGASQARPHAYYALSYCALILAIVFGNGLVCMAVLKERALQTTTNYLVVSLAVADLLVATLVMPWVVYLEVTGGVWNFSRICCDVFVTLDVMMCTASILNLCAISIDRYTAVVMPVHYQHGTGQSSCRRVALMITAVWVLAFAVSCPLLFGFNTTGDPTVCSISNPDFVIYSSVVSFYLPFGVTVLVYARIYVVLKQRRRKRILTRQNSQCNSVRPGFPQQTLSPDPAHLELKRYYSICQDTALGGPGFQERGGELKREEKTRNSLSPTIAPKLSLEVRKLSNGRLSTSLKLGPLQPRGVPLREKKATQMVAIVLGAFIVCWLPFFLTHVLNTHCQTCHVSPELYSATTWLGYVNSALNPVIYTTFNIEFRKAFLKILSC

Row | SMILES | IC50 [1] | IC50 [2] | ED50 [3]
1 | CCN(CC)CCNC(=O)c1ccc(-c2nc3ccccc3n2CCCCn2c(-c3ccc(C(=O)NCCN(CC)CC)cc3)nc3ccccc32)cc1 [Example 17] | 110 nM | 3070 nM | –
2 | CCN1CCCC1CNC(=O)c1ccc(-c2nc3ccccc3n2CCCCn2c(-c3ccc(C(=O)NCC4CCCN4CC)cc3)nc3ccccc32)cc1 (centres unmarked) [Example 16] | 85 nM | 1430 nM | –
3 | NCCCOc1ccc(-c2nc3ccccc3n2C/C=C/Cn2c(-c3ccc(OCCCN4CCN(c5ccccc5)CC4)cc3)nc3ccccc32)cc1 [Example 15] | 19 nM | 803 nM | –
4 | CCN(CC)CCCOc1cccc(-c2nc3ccccc3n2C/C=C/Cn2c(-c3cccc(OCCCN(CC)CC)c3)nc3ccccc32)c1 [Example 7, E-(3-{3-[1-(4-{2-[3-(3-Diethylaminopropoxy)phenyl]benzoimidazol-1-yl}but-2-enyl)-1H-benzoimidazol-2-yl]phenoxy}propyl)diethylamine] | 16 nM | 2450 nM | –
5 | CCN(CC)CCCOc1ccc(-c2nc3ccccc3n2C/C=C/Cn2c(-c3ccccc3)nc3ccccc32)cc1 [Example 13, Diethyl-[3-(4-{1-[4-(2-phenylbenzoimidazol-1-yl)but-2-enyl]-1H-benzoimidazol-2-yl}phenoxy)propyl]amine] | – | 6430 nM | –
6 | C(=C\Cn1c(-c2ccc(OCCCN3CCCC3)cc2)nc2ccccc21)/Cn1c(-c2ccc(OCCCN3CCCC3)cc2)nc2ccccc21 [Example 1] | 9 nM | – | –
7 | C(=C\Cn1c(-c2ccc(OCCCN3CCCCC3)cc2)nc2ccccc21)/Cn1c(-c2ccc(OCCCN3CCCCC3)cc2)nc2ccccc21 [Example 6] | 9 nM | – | –

Second part, led by results:

Row | IC50 [1] | IC50 [2] | SMILES | ED50 [3]
8 | 5 nM | – | CCCN(CCC)CCCOc1ccc(-c2nc3ccccc3n2C/C=C/Cn2c(-c3ccc(OCCCN(CCC)CCC)cc3)nc3ccccc32)cc1 [Example 2, E-(3-{4-[1-(4-{2-[4-(3-Dipropylaminopropoxy)phenyl]benzoimidazol-1-yl}but-2-enyl)-1H-benzoimidazol-2-yl]phenoxy}propyl)dipropylamine] | –
9 | 36 nM | 1070 nM | CCN(CC)CCCOc1ccc(-c2nc3ccccc3n2CCCCn2c(-c3ccc(OCCCN(CC)CC)cc3)nc3ccccc32)cc1 [Example 12, (3-{4-[1-(4-{2-[4-(3-Diethylaminopropoxy)phenyl]benzoimidazol-1-yl}butyl)-1H-benzoimidazol-2-yl]phenoxy}propyl)diethylamine] | 2.8 mg/kg
10 | 143 nM | – | CN(C)CCCOc1ccc(-c2nc3ccccc3n2C/C=C/Cn2c(-c3ccc(OCCCN(C)C)cc3)nc3ccccc32)cc1 [Example 5, E-(3-{4-[1-(4-{2-[4-(3-Dimethylaminopropoxy)phenyl]benzoimidazol-1-yl}but-2-enyl)-1H-benzoimidazol-2-yl]phenoxy}propyl)dimethylamine] | –
11 | 6 nM | 200 nM | CC(C)N(C)CCCOc1ccc(-c2nc3ccccc3n2C/C=C/Cn2c(-c3ccc(OCCCN(C)C(C)C)cc3)nc3ccccc32)cc1 [Example 9, E-Isopropyl-[3-(4-{1-[4-(2-{4-[3-(isopropylmethylamino)propoxy]phenyl}benzoimidazol-1-yl)but-2-enyl]-1H-benzoimidazol-2-yl}phenoxy)propyl]methylamine] | –
12 | – | 427 nM | CCCCN(CCCC)CCCOc1ccc(-c2nc3ccccc3n2C/C=C/Cn2c(-c3ccc(OCCCN(CCCC)CCCC)cc3)nc3ccccc32)cc1 [Example 8, E-Dibutyl-(3-{4-[1-(4-{2-[4-(3-dibutylaminopropoxy)phenyl]benzoimidazol-1-yl}-but-2-enyl)-1H-benzoimidazol-2-yl]phenoxy}propyl)amine] | –
13 | 16 nM | 2740 nM | CCCN(CCC)CCCOc1ccc(-c2nc3ccccc3n2CCCCn2c(-c3ccc(OCCCN(CCC)CCC)cc3)nc3ccccc32)cc1 [Example 11, (3-{4-[1-(4-{2-[4-(3-Dipropylaminopropoxy)phenyl]benzoimidazol-1-yl}butyl)-1H-benzoimidazol-2-yl]phenoxy}propyl)dipropylamine] | –
14 | 16 nM | – | CCN(CC)CCCOc1ccc(-c2nc3ccccc3n2C/C=C/Cn2c(-c3ccc(OCCCN(CC)CC)cc3)nc3ccccc32)cc1 [Example 10, E-(3-{4-[1-(4-{2-[4-(3-Diethylaminopropoxy)phenyl]benzoimidazol-1-yl}but-2-enyl)-1H-benzoimidazol-2-yl]phenoxy}propyl)diethylamine] | 3.9 mg/kg

Source: US5414010A, “Dimeric benzimidazoles as central nervous system agents” (Warner-Lambert Company, priority 1994, dated 1995)
